The nature of test [1]: Inhibition of COX-2 in LPS stimulated mouse J774.A1 cells using arachidonic acid as substrate preincubated for 60 mins followed by substrate addition and measured after 30 mins by EIA analysis. The format is cell-based.
Test [2] has as its target Serine/threonine-protein kinase PLK1 (Homo sapiens, UniProt P53350). Description: Inhibition of full-length His-tagged human PLK1 expressed in baculovirus using biotinylated casein as substrate in presence of [gamma-33P]-ATP by scintillation counter analysis.
The next test concerns MCF7. Description: Antiproliferative activity against human MCF7 cells assessed as reduction in cell proliferation incubated for 4 days by crystal violet based assay. Format: functional. The note with it: MCF7, 96 h.
Another test relates to NCI-H460. Description: Antiproliferative activity against human NCI-H460 cells assessed as reduction in cell proliferation incubated for 4 days by crystal violet based assay. Format: functional. The note with it: NCI-H460, 96 h.
A further test relates to DU-145. Description: Antiproliferative activity against human DU-145 cells assessed as reduction in cell proliferation incubated for 4 days by crystal violet based assay. The format is functional. The conditions noted are these: DU-145, 96 h.
Another test has as its system HeLa S3. Description: Antiproliferative activity against human HeLa S3 cells assessed as reduction in cell proliferation incubated for 4 days by crystal violet based assay. Format: functional. The conditions noted are these: HeLa S3, 96 h.
The subject of a further test is B16-F10. Kind of test: Antiproliferative activity against mouse B16-F10 cells assessed as reduction in cell proliferation incubated for 4 days by crystal violet based assay. The format is functional. The conditions noted are these: B16-F10, 96 h.
The subject of a further test is Caco-2. Kind of test: Antiproliferative activity against human Caco-2 cells assessed as reduction in cell proliferation incubated for 4 days by crystal violet based assay. Format: functional. The note with it: Caco-2, 96 h.
The nature of test [3]: Inhibition of beta-lactamase P99 (unknown origin) using cephalosporin nitrocefin as substrate preincubated for 10 mins followed by substrate addition by spectrophotometric analysis. Set-up: species or system Bacteria.
The target of test [4] is RNA-directed RNA polymerase (Hepacivirus hominis, UniProt O39930). Kind of test: Inhibition of Hepatitis C virus NS5B polymerase.
Test [5] addresses T1, Peroxisome proliferator-activated receptor alpha (Homo sapiens, UniProt Q07869).
T1 sequence (Q07869 whole entry): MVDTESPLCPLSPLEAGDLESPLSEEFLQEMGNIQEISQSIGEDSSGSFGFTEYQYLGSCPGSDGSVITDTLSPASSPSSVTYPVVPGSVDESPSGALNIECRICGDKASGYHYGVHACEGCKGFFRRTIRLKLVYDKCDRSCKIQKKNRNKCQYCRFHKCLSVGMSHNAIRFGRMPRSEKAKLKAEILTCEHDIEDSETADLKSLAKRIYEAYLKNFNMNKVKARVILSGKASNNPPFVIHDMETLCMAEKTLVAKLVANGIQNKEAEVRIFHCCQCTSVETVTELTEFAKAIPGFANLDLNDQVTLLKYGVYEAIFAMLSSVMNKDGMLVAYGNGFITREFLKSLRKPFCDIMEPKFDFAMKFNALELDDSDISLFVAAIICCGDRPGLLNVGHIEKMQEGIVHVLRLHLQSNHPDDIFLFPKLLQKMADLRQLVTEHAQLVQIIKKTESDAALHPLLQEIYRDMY
Kind of test: Agonist activity against PPAR-alpha (unknown origin).

Another test relates to Plasmodium falciparum. Description: Antimalarial activity against chloroquine sensitive Plasmodium falciparum FCR-3 infected in mouse FM3A cells ssessed as reduction in parasite growth. Format: functional, organism-based. The conditions noted are these: FCR-3, FM3A.
The next test deals with T2, Lethal factor (Bacillus anthracis, UniProt P15917).
T2 sequence (P15917 whole entry): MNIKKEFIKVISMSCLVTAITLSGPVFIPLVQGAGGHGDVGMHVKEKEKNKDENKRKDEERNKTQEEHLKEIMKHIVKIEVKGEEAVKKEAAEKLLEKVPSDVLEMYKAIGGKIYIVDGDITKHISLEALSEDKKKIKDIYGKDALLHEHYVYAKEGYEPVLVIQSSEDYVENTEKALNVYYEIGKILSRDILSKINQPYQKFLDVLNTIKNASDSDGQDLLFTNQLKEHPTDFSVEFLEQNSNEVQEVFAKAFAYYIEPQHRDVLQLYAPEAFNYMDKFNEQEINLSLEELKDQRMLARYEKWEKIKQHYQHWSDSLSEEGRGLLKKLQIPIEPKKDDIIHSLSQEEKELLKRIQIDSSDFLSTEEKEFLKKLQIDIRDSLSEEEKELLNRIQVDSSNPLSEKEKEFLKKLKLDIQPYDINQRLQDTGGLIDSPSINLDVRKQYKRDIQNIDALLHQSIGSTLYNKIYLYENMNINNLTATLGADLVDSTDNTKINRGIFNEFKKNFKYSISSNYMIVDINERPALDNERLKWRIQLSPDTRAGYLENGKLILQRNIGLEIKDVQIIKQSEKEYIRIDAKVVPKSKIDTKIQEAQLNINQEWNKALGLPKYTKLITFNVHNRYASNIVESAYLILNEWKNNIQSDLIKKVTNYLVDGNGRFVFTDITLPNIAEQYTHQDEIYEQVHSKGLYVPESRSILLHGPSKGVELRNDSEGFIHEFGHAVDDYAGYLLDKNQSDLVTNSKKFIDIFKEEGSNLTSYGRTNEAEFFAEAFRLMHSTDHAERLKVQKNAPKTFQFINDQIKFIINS
Kind of test: Inhibition of Bacillus anthracis anthrax lethal factor using MAPKKide as substrate incubated for 30 mins by fluorescence plate reader analysis.

Test [6] deals with Dual specificity tyrosine-phosphorylation-regulated kinase 1A (Homo sapiens, UniProt Q13627). Kind of test: Inhibition of recombinant human GST-tagged DYRK1A expressed in Escherichia coli using Woodtide as substrate in presence of [gamma-33P] ATP incubated for 30 mins by scintillation counter analysis.

From ChEMBL document CHEMBL5260823, “5-Ene-4-thiazolidinones - An efficient tool in medicinal chemistry” (Eur J Med Chem, 2017) come the findings set out here.

Usually IC50 stands for the concentration that inhibits the measured activity by half. As usually defined, the EC50 is the midpoint of the concentration-response curve. A lower EC50 goes with a more potent agent.

Chain of RNA-directed RNA polymerase (O39930 whole entry): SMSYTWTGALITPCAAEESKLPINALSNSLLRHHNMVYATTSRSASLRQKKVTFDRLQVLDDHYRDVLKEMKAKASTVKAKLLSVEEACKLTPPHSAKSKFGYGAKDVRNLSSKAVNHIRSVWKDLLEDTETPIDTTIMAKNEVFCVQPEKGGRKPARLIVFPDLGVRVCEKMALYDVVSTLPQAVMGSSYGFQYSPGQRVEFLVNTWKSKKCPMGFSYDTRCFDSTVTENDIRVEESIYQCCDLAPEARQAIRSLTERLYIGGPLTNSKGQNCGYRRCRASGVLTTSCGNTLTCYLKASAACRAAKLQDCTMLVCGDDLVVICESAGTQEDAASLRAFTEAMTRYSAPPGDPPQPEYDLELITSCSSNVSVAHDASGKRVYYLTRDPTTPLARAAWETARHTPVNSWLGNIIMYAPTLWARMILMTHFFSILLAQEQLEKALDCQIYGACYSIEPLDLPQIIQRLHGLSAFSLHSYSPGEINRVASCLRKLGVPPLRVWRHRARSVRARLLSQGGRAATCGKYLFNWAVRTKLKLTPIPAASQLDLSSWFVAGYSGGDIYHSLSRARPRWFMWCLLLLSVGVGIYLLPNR
Chain of Serine/threonine-protein kinase PLK1 (P53350 whole entry): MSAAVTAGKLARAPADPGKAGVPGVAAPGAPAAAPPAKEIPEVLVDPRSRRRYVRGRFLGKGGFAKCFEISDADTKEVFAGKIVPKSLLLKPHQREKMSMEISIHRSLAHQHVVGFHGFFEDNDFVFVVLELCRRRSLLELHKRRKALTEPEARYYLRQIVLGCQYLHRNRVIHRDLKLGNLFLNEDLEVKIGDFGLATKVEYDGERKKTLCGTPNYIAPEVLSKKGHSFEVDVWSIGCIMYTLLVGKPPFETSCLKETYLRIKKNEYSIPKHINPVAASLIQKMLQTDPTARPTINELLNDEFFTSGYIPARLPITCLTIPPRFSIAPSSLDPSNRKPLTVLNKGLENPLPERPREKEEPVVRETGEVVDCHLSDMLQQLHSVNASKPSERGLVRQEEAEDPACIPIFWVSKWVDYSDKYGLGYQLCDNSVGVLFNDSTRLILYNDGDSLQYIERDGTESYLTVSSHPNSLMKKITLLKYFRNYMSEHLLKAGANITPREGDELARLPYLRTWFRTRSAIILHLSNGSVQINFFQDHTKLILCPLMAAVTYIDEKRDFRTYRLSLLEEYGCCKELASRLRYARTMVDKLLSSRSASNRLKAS

With `CONC1=NC(=O)/C(=C/c2cc(C(C)(C)C)c(O)c(C(C)(C)C)c2)S1`, the IC50 in test [1] is 0.17 µM. For `CCn1c(=O)/c(=C/Nc2cccc(CCN3CCCC3)c2)s/c1=C(\C#N)C(=O)NCC(F)(F)F`, the IC50 in test [2] was 0.019 µM; in the test with MCF7, 0.2 µM; in the test on NCI-H460 it was 0.2 µM; in the test with DU-145, 0.2 µM; with HeLa S3 it was 0.2 µM; with B16-F10, 0.2 µM. For the same compound, the IC50 with Caco-2 stood at 0.2 µM. In test [3], `O=C1NC(=S)S/C1=C1\C(=O)Nc2ccccc21` showed an IC50 of 2600 µM. As to `Cc1ccc(S(=O)(=O)NC2=NC(=O)/C(=C/c3ccc(C)o3)S2)cc1`, in [4], the IC50 is 2 µM. `CN(C)c1ccc(/C=C/C=C2\S/C(=N\c3ccccc3)N(Cc3ccc(C(=O)O)cc3)C2=O)cc1` had an EC50 in test [5] of 0.044 µM. `C=CCn1c(=O)/c(=C2\Sc3ccccc3N2C)s/c1=C\c1cccc[n+]1C`: in the test with Plasmodium falciparum, the EC50 stood at 0.012 µM. Compound `O=C(O)CN1C(=O)/C(=C/c2ccco2)SC1=S` returned an IC50 against Lethal factor of 10 µM. With `COc1ccc(/C=C2\SC(NCCCN3CCN(CCCNC4=NC(=O)/C(=C/c5ccc(OC)cc5)S4)CC3)=NC2=O)cc1`, the IC50 in test [6] was 0.04 µM. Consider `CCc1ccc(/C=C2/SC(NC(C(=O)O)c3ccc(F)cc3)=NC2=O)o1` (stereo not given), for which the IC50 in test [4] came to 3 µM.
